Laboratory results from patent US5958950A, “Benzimidazole compounds useful for the treatment of inflammatory disease, atherosclerosis, restenosis or inhibiting lipoxygenase” (Warner-Lambert Company, priority 1998, dated 1999).

Biological target: T1, rabbit reticulocyte 15-LO (Oryctolagus cuniculus, UniProt P12530)
T1 construct: rabbit reticulocyte 15-LO; from tissue; host or cells: rabbit reticulocytes
T1 sequence (P12530 1-663): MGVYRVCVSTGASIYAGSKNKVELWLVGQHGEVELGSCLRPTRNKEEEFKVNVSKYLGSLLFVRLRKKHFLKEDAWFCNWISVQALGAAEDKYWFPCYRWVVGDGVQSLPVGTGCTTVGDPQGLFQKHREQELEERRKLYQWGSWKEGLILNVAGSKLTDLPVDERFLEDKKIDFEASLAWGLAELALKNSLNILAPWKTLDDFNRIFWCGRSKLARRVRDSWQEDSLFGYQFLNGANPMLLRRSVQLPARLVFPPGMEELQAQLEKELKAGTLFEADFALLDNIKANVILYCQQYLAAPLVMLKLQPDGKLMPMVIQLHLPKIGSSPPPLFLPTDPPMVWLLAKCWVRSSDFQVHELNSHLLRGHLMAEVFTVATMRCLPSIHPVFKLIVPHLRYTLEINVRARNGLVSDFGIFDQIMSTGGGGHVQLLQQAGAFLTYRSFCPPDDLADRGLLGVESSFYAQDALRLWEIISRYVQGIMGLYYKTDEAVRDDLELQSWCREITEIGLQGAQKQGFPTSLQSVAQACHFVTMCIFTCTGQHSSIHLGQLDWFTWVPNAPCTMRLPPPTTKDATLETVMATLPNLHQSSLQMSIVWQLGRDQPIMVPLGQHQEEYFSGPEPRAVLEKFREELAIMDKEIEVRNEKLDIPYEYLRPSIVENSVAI
Experiment: 15-Lipoxygenase Assay: inhibition of 15-LO with linoleic acid as substrate, HPLC method of Auerbach et al.
Type: biochemical
Details: HPLC method; incubation at 4° C. for 10 minutes; read-out: concentration of compounds required to inhibit 50% of the activity of 15-LO (IC50)
Experimental: The compounds described above are effective inhibitors of 15-LO when evaluated in standard assays routinely utilized to measure 15-LO activity. Specifically, representative compounds were evaluated by the methods described by Auerbach, et al., Analytical Biochemistry, 1992; 201:375-380.Two in vitro assays were utilized, both utilizing rabbit reticulocyte 15-LO, and linoleic acid as substrate, to enzymatically produce a peroxide oxidation product known as 13(S)-HPODE. N-Benzoyl leucomethylene blue was utilized as a calorimetric reagent for detection and quantification of the peroxide formation. Also, HPLC was utilized to quantify the oxidation following incubation at 4° C. for 10 minutes.
The 15-LO inhibitory activity of representative compounds is presented in Table I. The data column gives the concentration of compounds required to inhibit 50% of the activity of 15-LO (IC50) when measured by the HPLC method of Auerbach, et al. [drawing 10] Wherein W, X, Y and Z are C--H and R1 is hydrogen.

SMILES	IC50 [µM]
c1ccc(-c2csc(-c3nc4ccccc4[nH]3)n2)nc1 [Example 1]	0.36
Clc1ccc(-c2csc(-c3nc4ccccc4[nH]3)n2)cc1 [Example 2]	0.62
Fc1ccc(-c2csc(-c3nc4ccccc4[nH]3)n2)cc1 [Example 3]	0.189
Clc1ccc(Cl)c(-c2csc(-c3nc4ccccc4[nH]3)n2)c1 [Example 5]	0.207
c1ccc(-c2csc(-c3nc4ccccc4[nH]3)n2)cc1 [Example 6, 2-(4-Phenyl-thiazol-2-yl)-1H-benzoimidazole]	0.115
c1csc(-c2csc(-c3nc4ccccc4[nH]3)n2)c1 [Example 7]	0.096
COc1cccc(-c2csc(-c3nc4ccccc4[nH]3)n2)c1 [Example 8, 2-[4-(3-Methoxy-phenyl)-thiazol-2-yl]-1H-benzoimidazole]	0.5
COc1ccccc1-c1csc(-c2nc3ccccc3[nH]2)n1 [Example 9, 2-[4-(2-Methoxy-phenyl)-thiazol-2-yl]-1H-benzoimidazole]	0.125
COc1ccc(-c2csc(-c3nc4ccccc4[nH]3)n2)cc1 [Example 10, 2-[4-(4-Methoxy-phenyl)-thiazol-2-yl]-1H-benzoimidazole]	1.65
c1ccc(-c2ccc(-c3csc(-c4nc5ccccc5[nH]4)n3)cc2)cc1 [Example 11, 2-(4-Biphenyl-4-yl-thiazol-2-yl)-1H-benzoimidazole]	> 10
Oc1ccc(-c2csc(-c3nc4ccccc4[nH]3)n2)cc1 [Example 12, 4-[2-(1H-Benzoimidazol-2-yl)-thiazol-4-yl]-phenol]	> 2.5
Oc1ccc(-c2csc(-c3nc4ccccc4[nH]3)n2)cc1O [Example 13, 4-[2-(1H-Benzoimidazol-2-yl)-thiazol-4-yl]-benzene-1,2-diol]	> 2.5
COc1ccc(OC)c(-c2csc(-c3nc4ccccc4[nH]3)n2)c1 [Example 15, 2-[4-(2,5-Dimethoxy-phenyl)-thiazol-2-yl]-1H-benzoimidazole]	0.39
COc1cccc(OC)c1-c1csc(-c2nc3ccccc3[nH]2)n1 [Example 16, 2-[4-(2,6-Dimethoxy-phenyl)-thiazol-2-yl]-1H-benzoimidazole]	> 10
Cc1ccccc1-c1csc(-c2nc3ccccc3[nH]2)n1 [Example 19, 2-(4-o-Tolyl-thiazol-2-yl)-1H-benzoimidazole]	0.33
Clc1cccc(-c2csc(-c3nc4ccccc4[nH]3)n2)c1 [Example 20, 2-[4-(3-Chloro-phenyl)-thiazol-2-yl]-1H-benzoimidazole]	0.2
Brc1ccc(-c2csc(-c3nc4ccccc4[nH]3)n2)cc1 [Example 21, 2-[4-(4-Bromo-phenyl)-thiazol-2-yl]-1H-benzoimidazole]	0.46
O=C1c2ccccc2C(=O)N1Cc1csc(-c2nc3ccccc3[nH]2)n1 [Example 25, 2-[2-(1H-Benzoimidazole-2yl)-thiazol-4-ylmethyl]-isoindole-1,3-dione]	> 10
Brc1sc(-c2nc3ccccc3[nH]2)nc1-c1ccccc1 [Example 27, 2-(5-Bromo-4-phenyl-thiazol-2-yl)-1H-benzoimidazole]	0.773
O=C(O)c1sc(-c2nc3ccccc3[nH]2)nc1-c1ccccc1 [Example 29, 2-(lH-Benzoimidazol-2-yl)-4-phenyl-thiazole-5-carboxylic acid]	> 10
O=C(NCCCN1CCCCC1)c1csc(-c2nc3ccccc3[nH]2)n1 [Example 32, 2-(1H-Benzoimidazol-2-yl)-thiazole-4-carboxylic acid (3-piperidin-1-yl-propyl)-amide]	> 10
Oc1nc(-c2nc3ccccc3[nH]2)sc1-c1ccccc1 [Example 36, 2-(1H-Benzoimidazol-2-yl)-5-phenyl-thiazol-4-ol]	> 10

Same assay, conditions: marked (P), not explained; read-out: IC50 (P)

SMILES	IC50 [µM]
Oc1ccccc1-c1csc(-c2nc3ccccc3[nH]2)n1 [Example 17, 2-[2-(1H-Benzoimidazol-2-yl)-thiazol-4-yl]-phenol]	0.04
c1ccc2[nH]c(-c3nc(-c4ccncc4)cs3)nc2c1 [Example 37]	0.54

Same assay, conditions: marked (Q), not explained; read-out: IC50 (Q)

SMILES	IC50 [µM]
Oc1ccccc1-c1csc(-c2nc3ccccc3[nH]2)n1 [Example 17, 2-[2-(1H-Benzoimidazol-2-yl)-thiazol-4-yl]-phenol]	0.08
c1ccc2[nH]c(-c3nc(-c4ccncc4)cs3)nc2c1 [Example 37]	0.81

Same assay, conditions: read-out: 15-LO inhibitory activity, % @ 10 μM

SMILES	inhibition at 10 µM [%]
Oc1ccc(Br)cc1-c1csc(-c2nc3ccccc3[nH]2)n1 [Example 14, 2-[2-(1H-Benzoimidazol-2-yl)-thiazol-4-yl]-4-bromo-phenol]	91.3
Cc1ccc(-c2csc(-c3nc4ccccc4[nH]3)n2)cc1 [Example 18, 2-(4-p-Tolyl-thiazol-2-yl)-1H-benzoimidazole]	71.6
CCOC(=O)c1sc(-c2nc3ccccc3[nH]2)nc1-c1ccccc1 [Example 28, 2-(1H-Benzoimidazol-2-yl)-4-phenyl-thiazole-5-carboxylic acid ethyl ester]	69
CCOC(=O)c1csc(-c2nc3ccccc3[nH]2)n1 [Example 30, 2-(1H-Benzoimidazol-2-yl)-thhiazole-4-carboxylic acid ethyl ester]	25
O=C(O)c1csc(-c2nc3ccccc3[nH]2)n1 [Example 31, 2-(1H-Benzoimidazol-2-yl)-thiazole-4-carboxylic acid]	1.38
O=C(Nc1ccccc1)c1csc(-c2nc3ccccc3[nH]2)n1 [Example 33, 2-(1H-Benzoimidazol-2-yl)-thiazole-4-carboxylic acid phenylamide]	25.1
O=C(Nc1sc(-c2nc3ccccc3[nH]2)nc1-c1ccccc1)OCc1ccccc1 [Example 34, [2-(1H-Benzoimidazol-2-yl)-4-phenyl-thiazol-5-yl]-carbamic acid benzyl ester]	89.2
N#Cc1cccc(-c2csc(-c3nc4ccccc4[nH]3)n2)c1 [Example 35, 3-[2-(1H-Benzoimidazol-2-yl)-thiazol-4-yl]-benzonitrile]	45
